Reference: ChEMBL document CHEMBL3112582, “Identification of novel 7-amino-5-methyl-1,6-naphthyridin-2(1H)-one derivatives as potent PI3K/mTOR dual inhibitors” (Bioorg Med Chem Lett, 2014)

Legend:
[1] = molecular target: Serine/threonine-protein kinase mTOR (Homo sapiens, UniProt P42345); assay: Inhibition of mTOR (unknown origin) after 40 mins by TR-FRET assay
[2] = molecular target: Phosphatidylinositol 4,5-bisphosphate 3-kinase catalytic subunit alpha isoform (Homo sapiens, UniProt P42336); assay: Inhibition of PI3Kalpha (unknown origin) using PIP2/PS as substrate compound preincubated for 15 mins by luciferase-based luminescence assay
Phosphatidylinositol 4,5-bisphosphate 3-kinase catalytic subunit alpha isoform, sequence (P42336 whole entry, canonical isoform): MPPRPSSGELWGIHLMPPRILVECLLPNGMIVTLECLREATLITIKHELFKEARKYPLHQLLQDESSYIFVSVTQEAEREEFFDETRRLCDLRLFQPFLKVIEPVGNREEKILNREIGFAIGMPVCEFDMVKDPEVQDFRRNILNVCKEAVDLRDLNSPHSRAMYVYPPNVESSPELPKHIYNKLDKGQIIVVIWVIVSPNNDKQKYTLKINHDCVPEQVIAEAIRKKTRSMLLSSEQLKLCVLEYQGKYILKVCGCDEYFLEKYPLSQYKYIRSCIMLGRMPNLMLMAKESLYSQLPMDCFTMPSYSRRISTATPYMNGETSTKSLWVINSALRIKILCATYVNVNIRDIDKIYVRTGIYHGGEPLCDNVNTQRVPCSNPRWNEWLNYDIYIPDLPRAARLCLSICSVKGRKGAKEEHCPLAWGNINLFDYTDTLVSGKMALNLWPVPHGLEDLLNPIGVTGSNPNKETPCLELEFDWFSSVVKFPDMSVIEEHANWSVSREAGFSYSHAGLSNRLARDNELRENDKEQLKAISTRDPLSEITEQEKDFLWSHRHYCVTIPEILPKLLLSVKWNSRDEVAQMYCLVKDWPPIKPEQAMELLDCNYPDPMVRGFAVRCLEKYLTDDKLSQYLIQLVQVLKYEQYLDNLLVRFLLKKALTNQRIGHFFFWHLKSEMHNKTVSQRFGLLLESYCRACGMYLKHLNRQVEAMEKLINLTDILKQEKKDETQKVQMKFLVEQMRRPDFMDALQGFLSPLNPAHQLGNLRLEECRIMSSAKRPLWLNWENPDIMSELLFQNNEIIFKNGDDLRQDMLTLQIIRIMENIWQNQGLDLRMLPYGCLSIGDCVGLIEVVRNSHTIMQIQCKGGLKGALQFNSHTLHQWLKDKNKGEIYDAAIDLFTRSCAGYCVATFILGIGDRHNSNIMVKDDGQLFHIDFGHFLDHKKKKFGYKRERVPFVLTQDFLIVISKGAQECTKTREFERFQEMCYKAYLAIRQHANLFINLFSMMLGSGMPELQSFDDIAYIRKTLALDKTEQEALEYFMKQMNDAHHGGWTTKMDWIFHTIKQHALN

[3] = Oral bioavailability in CD-1 mouse at 6.81 mg/kg; assay type: ADME, organism-based; conditions: in vivo
[4] = Half life in CD-1 mouse at 6.81 mg/kg, po; assay type: ADME, organism-based; set-up: dose 6.81 mg/kg, route oral; conditions: in vivo
[5] = AUC (infinity) in CD-1 mouse at 6.81 mg/kg, po; assay type: ADME, organism-based; set-up: time infinity, dose 6.81 mg/kg, route oral; conditions: plasma
[6] = Clearance in CD-1 mouse at 1.3 mg/kg, iv; assay type: ADME, organism-based; set-up: dose 1.3 mg/kg, route intravenous; conditions: in vivo
[7] = Half life in CD-1 mouse at 1.3 mg/kg, iv; assay type: ADME, organism-based; set-up: dose 1.3 mg/kg, route intravenous; conditions: in vivo
[8] = AUC (infinity) in CD-1 mouse at 1.3 mg/kg, iv; assay type: ADME, organism-based; set-up: time infinity, dose 1.3 mg/kg, route intravenous; conditions: plasma
SK-OV-3 = assay: Antiproliferative activity against human SKOV3 cells after 72 hrs by CellTiter-Glo assay; assay type: functional, cell-based; conditions: SK-OV-3, 72 h

| IC50 [1] [nM] | IC50 [2] [nM] | SMILES | also measured |
| --- | --- | --- | --- |
| 30.1 |  | COc1ccc(-c2cc3c(C)nc(N)nc3n(C3CCCC3)c2=O)cn1 |  |
| 8.49 | 31.2 | COc1ncc(-c2cc3c(C)nc(N)cc3n(C3CCCC3)c2=O)cc1NS(=O)(=O)c1ccc(Cl)s1 |  |
| 13.4 | 8.6 | COc1ncc(-c2cc3c(C)nc(N)cc3n(C3CCOCC3)c2=O)cc1NS(=O)(=O)c1ccc(F)cc1F |  |
|  | 39.6 | COc1ncc(-c2cc3c(C)nc(N)cc3n(C3CC3)c2=O)cc1NS(=O)(=O)c1ccc(F)cc1F |  |
| 126 | 42.8 | COc1ncc(-c2cc3c(C)nc(N)cc3n(C(C)C)c2=O)cc1NS(=O)(=O)c1ccc(F)cc1F |  |
| > 10000 | 5550 | COc1ccc(-c2cc3c(C)nc(N)nc3n2[C@H]2CC[C@H](OCCO)CC2)cn1 |  |
| 35.3 |  | COc1ncc(-c2cnc3nc(N)nc(C)c3c2)cc1NS(=O)(=O)c1ccc(F)cc1F |  |
| 2.32 | 3.43 | COc1ncc(-c2ccc3nc(N)nc(C)c3c2)cc1NS(=O)(=O)c1ccc(F)cc1F |  |
| 11.2 | 35.4 | COc1ccc(-c2cc3c(C)nc(N)cc3n([C@H]3CC[C@H](OCCO)CC3)c2=O)cn1 |  |
| 160 | 5.95 | COc1ncc(-c2cc3c(C)nc(N)cc3n(C3CCCC3)c2=O)cc1F |  |
| 12.3 | 2.45 | Cc1nc(N)cc2c1cc(-c1cnc3[nH]ccc3c1)c(=O)n2C1CCCC1 |  |
| 82.1 | 15.2 | Cc1nc(N)cc2c1cc(-c1cnc3c(ccn3C)c1)c(=O)n2C1CCCC1 |  |
| 172 | 6 | Cc1nc(N)cc2c1cc(-c1cnc3[nH]ncc3c1)c(=O)n2C1CCCC1 |  |
| 8.55 | 2.42 | COc1ncc(-c2cc3c(C)nc(N)cc3n([C@H]3CC[C@H](OCCO)CC3)c2=O)cc1NS(=O)(=O)c1ccc(F)cc1F | bioavailability [3]: 8.5%; half-life [4]: 7.67 h; AUC(0-inf) [5]: 3440 ng·h/mL; clearance [6]: 2.87 mL/min/kg; half-life [7]: 1.33 h; AUC(0-inf) [8]: 8090 ng·h/mL; IC50 (SK-OV-3): 2100 nM |
| 62.6 | 23.1 | COc1ncc(-c2cc3c(C)nc(N)cc3n(C3CCCC3)c2=O)cc1NS(C)(=O)=O |  |
| 141 | 69.1 | COc1ncc(-c2cc3c(C)nc(N)cc3n(C3CCCC3)c2=O)cc1NS(=O)(=O)C1CC1 |  |
| 24.7 | 14.3 | COc1ncc(-c2cc3c(C)nc(N)cc3n(C3CCCC3)c2=O)cc1NS(=O)(=O)c1ccc(C#N)cc1 |  |

More lines, now with the values behind:

| SMILES | IC50 [1] [nM] | IC50 [2] [nM] | also measured |
| --- | --- | --- | --- |
| COc1ncc(-c2cc3c(C)nc(N)cc3n(C3CCCC3)c2=O)cc1NS(=O)(=O)c1ccc(C(F)(F)F)cc1 | 78.2 | 175 |  |
| COc1ncc(-c2cc3c(C)nc(N)cc3n(C3CCCC3)c2=O)cc1NS(=O)(=O)c1ccc(F)cc1 | 35 | 72.6 |  |
| COc1ncc(-c2cc3c(C)nc(N)cc3n(C3CCCC3)c2=O)cc1NS(=O)(=O)c1cccc(F)c1 | 13.9 | 60.5 |  |
| COc1ncc(-c2cc3c(C)nc(N)cc3n(C3CCCC3)c2=O)cc1NS(=O)(=O)c1ccccc1F |  | 37.3 |  |
| COc1ncc(-c2cc3c(C)nc(N)cc3n([C@H]3CC[C@H](O)CC3)c2=O)cc1NS(=O)(=O)c1ccc(F)cc1F | 28.7 | 9.9 |  |
| COc1ccc(-c2cn([C@H]3CC[C@H](OCCO)CC3)c3nc(N)nc(C)c23)cn1 | > 10000 | > 10000 |  |
| COc1ncc(-c2cnc3nc(N)nc(-c4ccncc4)c3c2)cc1NS(=O)(=O)c1ccc(F)cc1F | 18.4 | 35.6 |  |
| COc1ccc(-c2cc3c(C)nc(N)cc3n(C3CCCC3)c2=O)cn1 | 39 | 13.6 |  |
| COc1ncc(-c2cc3c(C)nc(N)cc3n(C3CCCC3)c2=O)cn1 | 36.5 | 6.45 |  |
| Cc1nc(N)cc2c1cc(-c1cnc3[nH]cnc3c1)c(=O)n2C1CCCC1 | 13.9 | 2.9 |  |
| COc1ncc(-c2cc3c(C)nc(N)cc3n(C3CCCC3)c2=O)cc1NS(=O)(=O)c1ccc(F)cc1F | 33.9 | 12 |  |
| COc1ncc(-c2cc3c(C)nc(N)cc3n(C3CCCC3)c2=O)cc1NS(=O)(=O)c1ccccc1 | 19.2 | 117 |  |
| COc1ccc(S(=O)(=O)Nc2cc(-c3cc4c(C)nc(N)cc4n(C4CCCC4)c3=O)cnc2OC)cc1 | 65.6 | 174 |  |
